Data reported in US11925624B2, “Methods of administering anti-fibrotic therapy” (GENENTECH, INC., priority 2016, dated 2024).
Like-named read-outs stand apart in the source and are kept apart here.

Assay: Phase 1 Part A food effect (high-fat / low-fat breakfast) on single-dose pharmacokinetics
Type: in vivo, human
Details: for Test/Reference ratio of LS means, AUC0-t / Test/Reference ratio of LS means, AUC0-∞ / Test/Reference ratio of LS means, Cmax: 400 mg Fed; for % AUCextrap: arithmetic mean; for Tmax / AUC(0-t) / AUC(0-inf) / Cmax / Vd/F / half-life: human, plasma, oral
From the text: This study was a randomized, blinded, placebo-controlled, ascending-dose study to evaluate the safety, tolerability, and pharmacokinetic (PK) of single (Part A) and multiple (Part B) doses of Compound I in healthy subjects. In addition, the effects of a standard high-fat breakfast, standard low-fat breakfast, and pretreatment and co-administration of a proton pump inhibitor (PPI) on the tolerability and PK of a single dose of Compound I were investigated in 2 groups in Part A. All subjects received their full dose of Compound I, administered as the appropriate number of either 25 or 200 mg tablets. The high fat breakfast comprised the following: total energy: 895 kcal; total fat: 61 g; total protein: 41 g; total carbohydrate: 46 g. The low fat breakfast comprised the following: total energy: 611 kcal; total fat: 14.7 g; total protein: 20.3 g; total carbohydrate: 106.3 g.
For Group A4, doses (400 mg Compound I or placebo) during Treatment Period 1 were administered in a fasted state on the morning of Day 1. Doses in Treatment Period 2 were administered 30 minutes after starting, and within approximately 10 minutes of completing, a high-fat standard breakfast on the morning of Day 1. Doses during Treatment Period 3 were administered 30 minutes after starting, and within approximately 10 minutes of completing a low-fat standard meal on the morning of Day 1. Doses during Treatment Period 4 were administered on Day 1 after an overnight fast and following administration of a PPI (rabeprazole 20 mg) for 3 days (given as 3 daily [QD] doses, with the final PPI dose at 2 hours prior to study drug administration on Day 1). Subjects in Group A4 received the same Compound I or placebo treatment in all treatment periods, such that each subject received up to 4 single doses of Compound I or placebo.
For Group A5, doses (800 mg Compound I or placebo) during Treatment Period 1 were administered in a fasted state on the morning of Day 1, doses during Treatment Period 2 were administered 30 minutes after starting a low-fat standard breakfast on the morning of Day 1, and doses during Treatment Period 3 were administered on Day 1 after a low-fat meal and following administration of a PPI (rabeprazole 20 mg) for 3 days (given as 3 QD doses, with the final PPI dose at 2 hours prior to study drug administration on Day 1). Subjects in Group A5 received the same Compound I or placebo treatment in all treatment periods, such that each subject received up to 3 single doses of Compound I or placebo.
For Group A4, each subject participated in 3 additional treatment periods, each separated by a minimum of 7 days. Group A4 resided at the CRU from Day −1 to Day 4 of Treatment Periods 2, 3, and 4. For Group A5, each subject participated in 2 additional treatment periods, each separated by a minimum of 7 days. Group A5 resided at the CRU from Day −1 to Day 4 of Treatment Periods 2 and 3. All subjects returned for a Follow-up visit between 5 to 14 days after their final dose of study treatment.
In Part A, all doses in Treatment Period 1 were administered after an overnight fast of at least 8 hours. For the A4 cohort, in Treatment Periods 2 and 3, doses were administered 30 minutes after starting and approximately 10 minutes after completing a high- or low-fat breakfast. In Treatment Period 4, the dose was administered after an overnight fast and following administration of a PPI (PPI was comprised of 3 doses of rabeprazole 20 mg, starting on Day −2 and with the final dose 2 hours before Compound I administration on Day 1). For Group A5, doses during Treatment Period 2 were administered 30 minutes after starting and approximately 10 minutes after completing a low-fat standard breakfast on the morning of Day 1, and doses during Treatment Period 3 were administered on Day 1 after a low-fat meal and following administration of a PPI for 3 days (given as 3 QD doses, with the final PPI dose at 2 hours prior to study drug administration on Day 1).

[1] = High-fat (Test) vs 400 mg Fasted (Reference)
[2] = High-fat (Test) vs 400 mg Fed, Low-fat (Reference)
[3] = Low-fat (Test) vs 400 mg Fasted (Reference)
[4] = 400 mg single dose (A4), Fed, High-fat
[5] = 400 mg single dose (A4), Fed, Low-fat
[6] = 800 mg single dose (A5), Fed, Low-fat
[7] = 800 mg, low-fat fed state vs fasted
[8] = Table 3, 4th section, Low-fat (Test) vs 400 mg Fasted (Reference), n = 6
[9] = high-fat fed state from the fasted state

Test/Reference ratio of LS means, AUC0-t [1]: 149.0%
Test/Reference ratio of LS means, AUC0-∞ [1]: 145.8%
Test/Reference ratio of LS means, Cmax [1]: 168.9%
Test/Reference ratio of LS means, AUC0-t [2]: 108.7%
Test/Reference ratio of LS means, AUC0-∞ [2]: 108.2%
Test/Reference ratio of LS means, Cmax [2]: 102.7%
Test/Reference ratio of LS means, AUC0-t [3]: 137.1%
Test/Reference ratio of LS means, AUC0-∞ [3]: 134.7%
Test/Reference ratio of LS means, Cmax [3]: 164.4%
AUC0-t (norm) [4]: 14000 (hr*ng/mL)/(mg/kg)
AUC0-∞ (norm) [4]: 14100 (hr*ng/mL)/(mg/kg)
CL/F [4]: 83.0 mL/min
CL/F(norm) [4]: 1.19 (mL/min)/kg
Cmax (norm) [4]: 1330 ng/mL/mg/kg
λZ [4]: 0.0861 h⁻¹
% AUCextrap [4]: 0.213%
AUC0-t (norm) [5]: 12900 (hr*ng/mL)/(mg/kg)
AUC0-∞ (norm) [5]: 13000 (hr*ng/mL)/(mg/kg)
CL/F [5]: 89.8 mL/min
CL/F(norm) [5]: 1.28 (mL/min)/kg
Cmax (norm) [5]: 1300 ng/mL/mg/kg
λZ [5]: 0.0852 h⁻¹
% AUCextrap [5]: 0.691%
AUC0-t (norm) [6]: 14300 (hr*ng/mL)/(mg/kg)
AUC0-∞ (norm) [6]: 14400 (hr*ng/mL)/(mg/kg)
CL/F [6]: 83.3 mL/min
CL/F(norm) [6]: 1.16 (mL/min)/kg
Cmax (norm) [6]: 1200 ng/mL/mg/kg
λZ [6]: 0.0793 h⁻¹
% AUCextrap [6]: 0.395%
Ratio of fed to fasted, AUC0-t [7]: 214.0%
Ratio of fed to fasted, AUC0-∞ [7]: 203.3%
Ratio of fed to fasted, Cmax [7]: 225.5%
Test/Reference ratio of LS means, AUC0-t [8]: 214.0%
Test/Reference ratio of LS means, AUC0-∞ [8]: 203.3%
Test/Reference ratio of LS means, Cmax [8]: 225.5%
Food effect on bioavailability (administration with food (high fat or low fat meal)): positive food effect
Increase in AUC0-t [9]: 49.0%
Increase in AUC0-∞ [9]: 45.8%
Increase in Cmax [9]: 68.9%
Tmax (400 mg, 400 mg single dose (A4), Fed, High-fat, median, read-out: tmax): 3.5 h
AUC(0-t) (400 mg, 400 mg single dose (A4), Fed, High-fat, read-out: AUC0-t): 80200 ng·h/mL
AUC(0-inf) (400 mg, 400 mg single dose (A4), Fed, High-fat, read-out: AUC0-∞): 80300 ng·h/mL
Cmax (400 mg, 400 mg single dose (A4), Fed, High-fat, read-out: Cmax): 7620 ng/mL
Vd/F (400 mg, 400 mg single dose (A4), Fed, High-fat, read-out: Vz/F): 57.8 L
Vd/F (400 mg, 400 mg single dose (A4), Fed, High-fat, read-out: Vz/F(norm)): 0.826 L/kg
half-life (400 mg, 400 mg single dose (A4), Fed, High-fat, read-out: t1/2 (converted)): 8.05 h
Tmax (400 mg, 400 mg single dose (A4), Fed, Low-fat, median, read-out: tmax): 2.5 h
AUC(0-t) (400 mg, 400 mg single dose (A4), Fed, Low-fat, read-out: AUC0-t): 73700 ng·h/mL
AUC(0-inf) (400 mg, 400 mg single dose (A4), Fed, Low-fat, read-out: AUC0-∞): 74200 ng·h/mL
Cmax (400 mg, 400 mg single dose (A4), Fed, Low-fat, read-out: Cmax): 7420 ng/mL
Vd/F (400 mg, 400 mg single dose (A4), Fed, Low-fat, read-out: Vz/F): 63.3 L
Vd/F (400 mg, 400 mg single dose (A4), Fed, Low-fat, read-out: Vz/F(norm)): 0.904 L/kg
half-life (400 mg, 400 mg single dose (A4), Fed, Low-fat, read-out: t1/2 (converted)): 7.52 h
AUC(0-t) (400 mg, Table 3, 4th section, 400 mg Compound I Fasted, n = 6, read-out: LS Means AUC0-t (Reference)): 74500 ng·h/mL
AUC(0-inf) (400 mg, Table 3, 4th section, 400 mg Compound I Fasted, n = 6, read-out: LS Means AUC0-∞ (Reference)): 78700 ng·h/mL
Cmax (400 mg, Table 3, 4th section, 400 mg Compound I Fasted, n = 6, read-out: LS Means Cmax (Reference)): 5910 ng/mL
Cmax (400 mg, Table 3, 4th section, 400 mg Compound I Fed, Low-fat, n = 6, read-out: LS Means Cmax (Test)): 13300 ng/mL
AUC(0-t) (400 mg, Table 3, 4th section, head as printed:, n = 6, read-out: LS Means AUC0-t (Test)): 159000 ng·h/mL
AUC(0-inf) (400 mg, Table 3, 4th section, head as printed:, n = 6, read-out: LS Means AUC0-∞ (Test)): 160000 ng·h/mL
Tmax (400 mg, high-fat fed state, read-out: tmax values, range): 1.5 to 6 h
Tmax (800 mg, 800 mg single dose (A5), Fed, Low-fat, median, read-out: tmax): 3 h
AUC(0-t) (800 mg, 800 mg single dose (A5), Fed, Low-fat, read-out: AUC0-t): 159000 ng·h/mL
AUC(0-inf) (800 mg, 800 mg single dose (A5), Fed, Low-fat, read-out: AUC0-∞): 160000 ng·h/mL
Cmax (800 mg, 800 mg single dose (A5), Fed, Low-fat, read-out: Cmax): 13300 ng/mL
Vd/F (800 mg, 800 mg single dose (A5), Fed, Low-fat, read-out: Vz/F): 63 L
Vd/F (800 mg, 800 mg single dose (A5), Fed, Low-fat, read-out: Vz/F(norm)): 0.876 L/kg
half-life (800 mg, 800 mg single dose (A5), Fed, Low-fat, read-out: t1/2 (converted)): 8.74 h
half-life (800 mg, 400 and 800 mg, high- and low-fat states, read-out: Geometric mean t1/2, range): 7.5 to 8.7 h
Tmax (low-fat fed state, read-out: tmax values, range): 1 to 4 h
Increase in AUC0-t (low-fat fed state (vs fasted)): 37.1%
Increase in AUC0-∞ (low-fat fed state (vs fasted)): 34.7%
Increase in Cmax (low-fat fed state (vs fasted)): 64.4%
SMILES: Cn1cc(-c2cn(-c3ccc(OC(F)(F)F)cc3)c(=O)c3ncn(C)c23)cn1 [Compound I]
